System: flies, bees, wasps, and other winged insects
Test: vaporized 1,4-DMN treatment of a closed potato storage facility
Format: in vivo
Procedure: The concentration of vapor of 1,4-DMN in the atmosphere of the storage facility was rather low. […] In the experiment, 500 milliliters and 188 milliliters of 1,4-DMN were vaporized and used. Both concentrations were effective. The facility was in a closed state for about 48 hours.
The ventilation system of the storage facility had been shut off so that there was no fresh air entering the building and the building was not being evacuated during the 1,4-DMN vapor treatment. The effect of the 1,4-DMN on insects within the storage facility was fairly immediate with substantially all the insects being killed within about 24 hours. In regions or facilities with dangerous insects, or where there is a large concentration of less-dangerous insects, such as bees, wasps and the like, which would create risks to workers, a closed facility may be treated to make it safe. Dangerous insects such as spiders, scorpions and the like may also effectively be treated in this manner with 1,4-DMN.

## Cc1ccc(C)c2ccccc12 [1,4-DMN, 1,4-dimethylnaphthalene]
1,4-DMN vapor treatment, closed storage facility without ventilation
  time until substantially all the insects were killed: ≤ 24 h
188 milliliters of 1,4-DMN vaporized, head space about 9,000 cubic feet, closed about 48 hours
  insecticidal effectiveness of vapor treatment: effective
500 milliliters of 1,4-DMN vaporized, head space about 9,000 cubic feet, closed about 48 hours
  insecticidal effectiveness of vapor treatment: effective
vapor, closed facility of approximately 10,000 cubic feet, head space about 9,000 cubic feet, closed about 48 hours, ventilation shut off
  effect of vaporized 1,4-DMN on insects contained within a potato storage facility: killed or placed in a state of stupor
